Assay results: ChEMBL document CHEMBL1141550, “N-Alkylated galanthamine derivatives: Potent acetylcholinesterase inhibitors from Leucojum aestivum” (Bioorg Med Chem Lett, 2008)
pIC50: −log10 of the molar value.

Biological target: Acetylcholinesterase (Electrophorus electricus, UniProt O42275)
Assay: Inhibition of electric eel acetylcholinesterase

Chain of Acetylcholinesterase (O42275 whole entry): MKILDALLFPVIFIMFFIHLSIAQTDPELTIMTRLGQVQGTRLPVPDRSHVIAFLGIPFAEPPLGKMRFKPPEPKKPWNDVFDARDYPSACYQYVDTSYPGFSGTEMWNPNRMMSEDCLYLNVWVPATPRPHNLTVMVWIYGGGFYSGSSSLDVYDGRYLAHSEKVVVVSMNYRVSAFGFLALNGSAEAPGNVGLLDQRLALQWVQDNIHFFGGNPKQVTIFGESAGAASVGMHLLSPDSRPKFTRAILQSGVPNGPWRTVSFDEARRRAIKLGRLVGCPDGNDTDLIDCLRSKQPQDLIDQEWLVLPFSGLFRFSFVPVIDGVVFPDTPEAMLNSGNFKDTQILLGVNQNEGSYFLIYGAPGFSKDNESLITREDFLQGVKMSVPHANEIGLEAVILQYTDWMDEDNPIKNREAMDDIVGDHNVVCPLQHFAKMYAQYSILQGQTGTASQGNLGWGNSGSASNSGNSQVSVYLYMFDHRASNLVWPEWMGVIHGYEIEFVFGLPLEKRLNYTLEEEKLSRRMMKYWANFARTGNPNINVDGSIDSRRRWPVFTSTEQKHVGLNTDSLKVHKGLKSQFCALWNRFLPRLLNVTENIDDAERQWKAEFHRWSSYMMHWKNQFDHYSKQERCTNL

Structure (SMILES) | pIC50
C=C(C)CN1CC[C@@]23C=C[C@H](O)C[C@@H]2Oc2c(OC)ccc(c23)C1 | 6.80
C=CCN1CC[C@@]23C=C[C@H](O)C[C@@H]2Oc2c(OC)ccc(c23)C1 [N-ALLYLNORGALANTHAMINE] | 6.74
